PubChem BioAssay AID1259407 (Chemical Carcinogenesis Research Information System (CCRIS), 2018)
Active and inactive are the calls of the source. The rule behind the calls is not given here.

Tested on: CCRIS mutagenicity, Ames/micronucleus/aberration tests
Test: CCRIS mutagenicity studies

Cn1c(N)nc2c3cccnc3ccc21
mutagenic call (End Point: IN VIVO MICRONUCLEUS, Test System: BONE MARROW POLYCHROMATIC ERYTHROCYTES, Species: MOUSE, Strain/Sex: BALB/C/MALE, Route: IP INJECTION): inactive; negative
mutagenic call (Test System: AMES SALMONELLA TYPHIMURIUM, Strain/Indicator: RAT, LIVER, MICROSOMES, Metabolic Activation: TA98, Method: PREINCUBATION): active; positive
mutagenic call (Test System: AMES SALMONELLA TYPHIMURIUM, Strain/Indicator: RAT, LIVER, S-9, Metabolic Activation: TA98, Method: PREINCUBATION): active; positive
mutagenic call (Test System: AMES SALMONELLA TYPHIMURIUM, Strain/Indicator: TA98 (1,8-DNP6), Metabolic Activation: RAT, LIVER, S-9, AROCLOR, Method: PREINCUBATION): inactive; negative
mutagenic call (Test System: AMES SALMONELLA TYPHIMURIUM, Strain/Indicator: TA98(1,8-DNP6), Metabolic Activation: RAT, LIVER, S-9, Method: STANDARD PLATE): inactive; negative
mutagenic call (Test System: AMES SALMONELLA TYPHIMURIUM, Strain/Indicator: TA98, Metabolic Activation: CYNOMOLGUS MONKEY, LIVER, MICROSOMES, Method: PREINCUBATION): active; positive
mutagenic call (Test System: AMES SALMONELLA TYPHIMURIUM, Strain/Indicator: TA98, Metabolic Activation: CYNOMOLOGUS MONKEY, LIVER, MICROSOMES, 2,3,7,8-TETRACHLORODIBENZO-P-DIOXIN, Method: PREINCUBATION): active; positive
mutagenic call (Test System: AMES SALMONELLA TYPHIMURIUM, Strain/Indicator: TA98, Metabolic Activation: CYNOMOLOGUS MONKEY, LIVER, MICROSOMES, 2-AMINO-3-METHYLIMIDAZO[4,5-F]QUINOLINE, Method: PREINCUBATION): active; positive
mutagenic call (Test System: AMES SALMONELLA TYPHIMURIUM, Strain/Indicator: TA98, Metabolic Activation: CYNOMOLOGUS MONKEY, LIVER, MICROSOMES, RIFAMPICIN, Method: PREINCUBATION): active; positive
mutagenic call (Test System: AMES SALMONELLA TYPHIMURIUM, Strain/Indicator: TA98, Metabolic Activation: HAMSTER, LIVER, S-9, AROCLOR 1254, Method: PREINCUBATION): active; positive
mutagenic call (Test System: AMES SALMONELLA TYPHIMURIUM, Strain/Indicator: TA98, Metabolic Activation: HAMSTER, LIVER, S-9, Method: PREINCUBATION): active; positive
mutagenic call (Test System: AMES SALMONELLA TYPHIMURIUM, Strain/Indicator: TA98, Metabolic Activation: HUMAN, BLOOD, CYTOSOL, Method: PREINCUBATION): active; positive
mutagenic call (Test System: AMES SALMONELLA TYPHIMURIUM, Strain/Indicator: TA98, Metabolic Activation: HUMAN, LIVER, MICROSOMES, Method: PREINCUBATION): active; positive
mutagenic call (Test System: AMES SALMONELLA TYPHIMURIUM, Strain/Indicator: TA98, Metabolic Activation: MONKEY, LIVER, MICROSOMES, Method: PREINCUBATION): active; positive
mutagenic call (Test System: AMES SALMONELLA TYPHIMURIUM, Strain/Indicator: TA98, Metabolic Activation: MONKEY, LIVER, S-9, Method: PREINCUBATION): active; positive
mutagenic call (Test System: AMES SALMONELLA TYPHIMURIUM, Strain/Indicator: TA98, Metabolic Activation: MOUSE, LIVER, HEPATOCYTES): active; positive
mutagenic call (Test System: AMES SALMONELLA TYPHIMURIUM, Strain/Indicator: TA98, Metabolic Activation: MOUSE, LIVER, HEPATOCYTES, 2,3,7,8-TETRACHLORODIBENZO-P-DIOXIN): active; positive
mutagenic call (Test System: AMES SALMONELLA TYPHIMURIUM, Strain/Indicator: TA98, Metabolic Activation: MOUSE, LIVER, MICROSOMES): active; positive
mutagenic call (Test System: AMES SALMONELLA TYPHIMURIUM, Strain/Indicator: TA98, Metabolic Activation: MOUSE, LIVER, MICROSOMES, 2,3,7,8-TETRACHLORODIBENZO-P-DIOXIN): active; positive
mutagenic call (Test System: AMES SALMONELLA TYPHIMURIUM, Strain/Indicator: TA98, Metabolic Activation: MOUSE, LIVER, MICROSOMES, TCDD, Method: STANDARD PLATE): active; positive
mutagenic call (Test System: AMES SALMONELLA TYPHIMURIUM, Strain/Indicator: TA98, Metabolic Activation: MOUSE, LIVER, MICROSOMES, Method: STANDARD PLATE): active; positive
mutagenic call (Test System: AMES SALMONELLA TYPHIMURIUM, Strain/Indicator: TA98, Metabolic Activation: MOUSE, LIVER, S-9, Method: PREINCUBATION): active; positive
mutagenic call (Test System: AMES SALMONELLA TYPHIMURIUM, Strain/Indicator: TA98, Metabolic Activation: NONE, Method: PREINCUBATION): inactive; negative
mutagenic call (Test System: AMES SALMONELLA TYPHIMURIUM, Strain/Indicator: TA98, Metabolic Activation: NONE, Method: STANDARD PLATE): inactive; negative
mutagenic call (Test System: AMES SALMONELLA TYPHIMURIUM, Strain/Indicator: TA98, Metabolic Activation: PATAS MONKEY, LIVER, MICROSOMES, Method: PREINCUBATION): active; positive
mutagenic call (Test System: AMES SALMONELLA TYPHIMURIUM, Strain/Indicator: TA98, Metabolic Activation: RAT LIVER, CYTOSOL, AROCLOR 1254, Method: STANDARD PLATE): inactive; negative
mutagenic call (Test System: AMES SALMONELLA TYPHIMURIUM, Strain/Indicator: TA98, Metabolic Activation: RAT LIVER, MICROSOMES, AROCLOR 1254, Method: STANDARD PLATE): active; positive
mutagenic call (Test System: AMES SALMONELLA TYPHIMURIUM, Strain/Indicator: TA98, Metabolic Activation: RAT, LIVER, HEPATOCYTES, AROCLOR 1254, Method: PREINCUBATION): active; positive
mutagenic call (Test System: AMES SALMONELLA TYPHIMURIUM, Strain/Indicator: TA98, Metabolic Activation: RAT, LIVER, HEPATOCYTES, Method: PREINCUBATION): active; positive
mutagenic call (Test System: AMES SALMONELLA TYPHIMURIUM, Strain/Indicator: TA98, Metabolic Activation: RAT, LIVER, MICROSOMES, Method: PREINCUBATION): active; positive
mutagenic call (Test System: AMES SALMONELLA TYPHIMURIUM, Strain/Indicator: TA98, Metabolic Activation: RAT, LIVER, S-9, 3-METHYLCHOLANTHRENE, Method: PREINCUBATION): active; positive
mutagenic call (Test System: AMES SALMONELLA TYPHIMURIUM, Strain/Indicator: TA98, Metabolic Activation: RAT, LIVER, S-9, AROCLOR, Method: PREINCUBATION): active; positive
mutagenic call (Test System: AMES SALMONELLA TYPHIMURIUM, Strain/Indicator: TA98, Metabolic Activation: RAT, LIVER, S-9, N-BENZYLIMIDAZOLE, Method: PREINCUBATION): active; positive
mutagenic call (Test System: AMES SALMONELLA TYPHIMURIUM, Strain/Indicator: TA98, Metabolic Activation: RAT, LIVER, S-9, PHENOBARBITONE, Method: PREINCUBATION): active; positive
mutagenic call (Test System: AMES SALMONELLA TYPHIMURIUM, Strain/Indicator: TA98, Metabolic Activation: RAT, LIVER, S-9, Method: STANDARD PLATE): active; positive
mutagenic call (Test System: AMES SALMONELLA TYPHIMURIUM, Strain/Indicator: TA98, Method: STANDARD PLATE): active; positive
mutagenic call (Test System: AMES SALMONELLA TYPHIMURIUM, Strain/Indicator: TA100, Metabolic Activation: NONE, Method: PREINCUBATION): inactive; negative
mutagenic call (Test System: AMES SALMONELLA TYPHIMURIUM, Strain/Indicator: TA100, Metabolic Activation: RAT, LIVER, S-9, AROCLOR 1254, Method: PREINCUBATION): active; positive
mutagenic call (Test System: AMES SALMONELLA TYPHIMURIUM, Strain/Indicator: YG1019, Metabolic Activation: RAT LIVER S-9, AROCLOR, Method: PREINCUBATION): active; positive
mutagenic call (Test System: AMES SALMONELLA TYPHIMURIUM, Strain/Indicator: YG1024, Metabolic Activation: RAT, LIVER, S-9, AROCLOR, Method: PREINCUBATION): active; positive
mutagenic call (Test System: CHINESE HAMSTER V-79, Strain/Indicator: V-79/6-THIOGUANINE, Metabolic Activation: RAT, LIVER, HEPATOCYTES, AROCLOR 1254): active; positive
mutagenic call (Test System: CHINESE HAMSTER V-79, Strain/Indicator: V-79/6-THIOGUANINE, Metabolic Activation: RAT, LIVER, S-9, AROCLOR 1254): inactive; negative
mutagenic call (Test System: E. COLI, Strain/Indicator: CC109, Metabolic Activation: RAT, LIVER, S-9, AROCLOR 1254, Method: STANDARD PLATE): active; positive
mutagenic call (Test System: E. COLI, Strain/Indicator: CC110, Metabolic Activation: RAT, LIVER, S-9, AROCLOR 1254, Method: STANDARD PLATE): active; positive
mutagenic call (Test System: E. COLI, Strain/Indicator: DJ3109, Metabolic Activation: RAT, LIVER, S-9, AROCLOR 1254, Method: STANDARD PLATE): active; positive
mutagenic call (Test System: E. COLI, Strain/Indicator: DJ3110, Metabolic Activation: RAT, LIVER, S-9, AROCLOR 1254, Method: STANDARD PLATE): active; positive
mutagenic call (Test System: E. COLI, Strain/Indicator: DJ3209, Metabolic Activation: RAT, LIVER, S-9, AROCLOR 1254, Method: STANDARD PLATE): active; positive
mutagenic call (Test System: E. COLI, Strain/Indicator: DJ3210, Metabolic Activation: RAT, LIVER, S-9, AROCLOR 1254, Method: STANDARD PLATE): active; positive
mutagenic call (Test System: UDS HAMSTER HEPATOCYTES, Strain/Indicator: THY INCORP, Metabolic Activation: NONE, Method: LIQUID SCINTILLATION COUNTING): active; positive
mutagenic call (Test System: UDS HUMAN HEPATOCYTES, Strain/Indicator: THY INCORP, Metabolic Activation: NONE, Method: AUTORADIOGRAPHY): active; positive
mutagenic call (Test System: UDS MOUSE HEPATOCYTES, Strain/Indicator: THY INCORP, Metabolic Activation: NONE, Method: AUTORADIOGRAPHY): active; positive
mutagenic call (Test System: UDS RAT HEPATOCYTES, Strain/Indicator: THY INCORP, Metabolic Activation: NONE, Method: AUTORADIOGRAPHY): inactive; negative
mutagenic call (Test System: UDS RAT HEPATOCYTES, Strain/Indicator: THY INCORP, Metabolic Activation: NONE, Method: LIQUID SCINTILLATION COUNTING): inactive; negative
